Experimental data published in paper PMC5562840, “TRPM6 and TRPM7 differentially contribute to the relief of heteromeric TRPM6/7 channels from inhibition by cytosolic Mg^2+ and Mg·ATP” (Scientific Reports, 2017).
One block for each compound: values may come before it.

Assays:
mTRPM6 = biological target: T1, mTRPM6 (Mus musculus, UniProt Q8CIR4); assay: whole-cell patch clamp; […] inhibits currents; type: cell-based
T1 construct: gene Trpm6; full-length mTRPM6 (2028 aa) in pIRES2-EGFP, HEK 293 cells

[1] = biological target: mouse TRPM7 (mTRPM7) fused to a myc tag (mTRPM7-myc) (mouse) (UniProt Q923J1)
mTRPM7 = biological target: T2, mTRPM7 (Mus musculus, UniProt Q923J1); assay: whole-cell patch clamp, intracellular dose response ([…] free Mg2+); type: cell-based
T2 construct: gene Trpm7; full-length mTRPM7 in pIRES2-EGFP, HEK 293 cells
T2 sequence (Q923J1 whole entry): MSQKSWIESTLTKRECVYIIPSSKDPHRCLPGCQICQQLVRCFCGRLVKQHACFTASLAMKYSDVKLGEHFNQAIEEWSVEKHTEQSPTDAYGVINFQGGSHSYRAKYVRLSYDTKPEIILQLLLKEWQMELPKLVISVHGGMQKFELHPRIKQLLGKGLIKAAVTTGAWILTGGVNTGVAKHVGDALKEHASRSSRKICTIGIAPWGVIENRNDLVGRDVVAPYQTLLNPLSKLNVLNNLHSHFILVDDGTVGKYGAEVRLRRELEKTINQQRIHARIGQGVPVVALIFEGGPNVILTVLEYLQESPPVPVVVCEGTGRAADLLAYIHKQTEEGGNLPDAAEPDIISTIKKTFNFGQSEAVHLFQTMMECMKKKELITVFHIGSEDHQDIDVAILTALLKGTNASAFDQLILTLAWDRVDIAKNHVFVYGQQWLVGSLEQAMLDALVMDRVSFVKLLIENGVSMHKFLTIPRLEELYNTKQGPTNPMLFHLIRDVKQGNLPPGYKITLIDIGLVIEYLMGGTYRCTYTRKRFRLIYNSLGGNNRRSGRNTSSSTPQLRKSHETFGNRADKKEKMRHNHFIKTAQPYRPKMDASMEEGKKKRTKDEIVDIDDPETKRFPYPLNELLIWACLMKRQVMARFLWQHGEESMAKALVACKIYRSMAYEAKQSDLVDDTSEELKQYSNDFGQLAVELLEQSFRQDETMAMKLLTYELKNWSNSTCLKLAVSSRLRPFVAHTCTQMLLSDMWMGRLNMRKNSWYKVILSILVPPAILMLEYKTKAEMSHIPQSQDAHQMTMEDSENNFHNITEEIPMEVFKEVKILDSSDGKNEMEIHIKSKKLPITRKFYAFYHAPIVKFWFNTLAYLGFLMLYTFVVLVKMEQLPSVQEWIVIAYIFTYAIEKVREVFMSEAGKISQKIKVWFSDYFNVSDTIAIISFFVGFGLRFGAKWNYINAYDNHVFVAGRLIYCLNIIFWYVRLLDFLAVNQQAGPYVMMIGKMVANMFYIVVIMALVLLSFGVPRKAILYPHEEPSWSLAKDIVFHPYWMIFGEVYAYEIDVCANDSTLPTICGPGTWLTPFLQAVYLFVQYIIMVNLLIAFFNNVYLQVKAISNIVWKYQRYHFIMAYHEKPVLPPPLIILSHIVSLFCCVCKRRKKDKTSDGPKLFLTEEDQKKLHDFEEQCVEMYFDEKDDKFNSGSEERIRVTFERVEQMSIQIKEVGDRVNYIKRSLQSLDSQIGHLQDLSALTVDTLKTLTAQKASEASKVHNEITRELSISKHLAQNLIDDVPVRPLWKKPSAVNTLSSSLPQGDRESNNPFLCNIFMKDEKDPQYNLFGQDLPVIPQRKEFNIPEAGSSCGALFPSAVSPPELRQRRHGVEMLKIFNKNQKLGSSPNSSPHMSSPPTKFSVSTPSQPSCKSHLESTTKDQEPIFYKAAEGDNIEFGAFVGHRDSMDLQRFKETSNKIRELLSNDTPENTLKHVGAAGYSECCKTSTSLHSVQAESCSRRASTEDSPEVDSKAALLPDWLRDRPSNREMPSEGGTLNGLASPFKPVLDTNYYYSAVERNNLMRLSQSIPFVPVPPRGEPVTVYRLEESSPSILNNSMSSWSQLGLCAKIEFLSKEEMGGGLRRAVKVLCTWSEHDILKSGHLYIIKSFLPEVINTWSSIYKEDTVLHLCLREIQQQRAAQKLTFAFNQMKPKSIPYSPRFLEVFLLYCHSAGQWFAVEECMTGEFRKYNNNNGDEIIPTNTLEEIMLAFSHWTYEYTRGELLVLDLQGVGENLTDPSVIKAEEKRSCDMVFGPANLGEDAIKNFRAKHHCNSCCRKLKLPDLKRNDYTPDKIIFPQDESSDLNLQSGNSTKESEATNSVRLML

Chain of mouse TRPM7 (mTRPM7) fused to a myc tag (mTRPM7-myc) (mouse) (Q923J1 whole entry, the tested form may be a part): as the sequence (Q923J1 whole entry) above
T1 sequence (Q8CIR4 whole entry): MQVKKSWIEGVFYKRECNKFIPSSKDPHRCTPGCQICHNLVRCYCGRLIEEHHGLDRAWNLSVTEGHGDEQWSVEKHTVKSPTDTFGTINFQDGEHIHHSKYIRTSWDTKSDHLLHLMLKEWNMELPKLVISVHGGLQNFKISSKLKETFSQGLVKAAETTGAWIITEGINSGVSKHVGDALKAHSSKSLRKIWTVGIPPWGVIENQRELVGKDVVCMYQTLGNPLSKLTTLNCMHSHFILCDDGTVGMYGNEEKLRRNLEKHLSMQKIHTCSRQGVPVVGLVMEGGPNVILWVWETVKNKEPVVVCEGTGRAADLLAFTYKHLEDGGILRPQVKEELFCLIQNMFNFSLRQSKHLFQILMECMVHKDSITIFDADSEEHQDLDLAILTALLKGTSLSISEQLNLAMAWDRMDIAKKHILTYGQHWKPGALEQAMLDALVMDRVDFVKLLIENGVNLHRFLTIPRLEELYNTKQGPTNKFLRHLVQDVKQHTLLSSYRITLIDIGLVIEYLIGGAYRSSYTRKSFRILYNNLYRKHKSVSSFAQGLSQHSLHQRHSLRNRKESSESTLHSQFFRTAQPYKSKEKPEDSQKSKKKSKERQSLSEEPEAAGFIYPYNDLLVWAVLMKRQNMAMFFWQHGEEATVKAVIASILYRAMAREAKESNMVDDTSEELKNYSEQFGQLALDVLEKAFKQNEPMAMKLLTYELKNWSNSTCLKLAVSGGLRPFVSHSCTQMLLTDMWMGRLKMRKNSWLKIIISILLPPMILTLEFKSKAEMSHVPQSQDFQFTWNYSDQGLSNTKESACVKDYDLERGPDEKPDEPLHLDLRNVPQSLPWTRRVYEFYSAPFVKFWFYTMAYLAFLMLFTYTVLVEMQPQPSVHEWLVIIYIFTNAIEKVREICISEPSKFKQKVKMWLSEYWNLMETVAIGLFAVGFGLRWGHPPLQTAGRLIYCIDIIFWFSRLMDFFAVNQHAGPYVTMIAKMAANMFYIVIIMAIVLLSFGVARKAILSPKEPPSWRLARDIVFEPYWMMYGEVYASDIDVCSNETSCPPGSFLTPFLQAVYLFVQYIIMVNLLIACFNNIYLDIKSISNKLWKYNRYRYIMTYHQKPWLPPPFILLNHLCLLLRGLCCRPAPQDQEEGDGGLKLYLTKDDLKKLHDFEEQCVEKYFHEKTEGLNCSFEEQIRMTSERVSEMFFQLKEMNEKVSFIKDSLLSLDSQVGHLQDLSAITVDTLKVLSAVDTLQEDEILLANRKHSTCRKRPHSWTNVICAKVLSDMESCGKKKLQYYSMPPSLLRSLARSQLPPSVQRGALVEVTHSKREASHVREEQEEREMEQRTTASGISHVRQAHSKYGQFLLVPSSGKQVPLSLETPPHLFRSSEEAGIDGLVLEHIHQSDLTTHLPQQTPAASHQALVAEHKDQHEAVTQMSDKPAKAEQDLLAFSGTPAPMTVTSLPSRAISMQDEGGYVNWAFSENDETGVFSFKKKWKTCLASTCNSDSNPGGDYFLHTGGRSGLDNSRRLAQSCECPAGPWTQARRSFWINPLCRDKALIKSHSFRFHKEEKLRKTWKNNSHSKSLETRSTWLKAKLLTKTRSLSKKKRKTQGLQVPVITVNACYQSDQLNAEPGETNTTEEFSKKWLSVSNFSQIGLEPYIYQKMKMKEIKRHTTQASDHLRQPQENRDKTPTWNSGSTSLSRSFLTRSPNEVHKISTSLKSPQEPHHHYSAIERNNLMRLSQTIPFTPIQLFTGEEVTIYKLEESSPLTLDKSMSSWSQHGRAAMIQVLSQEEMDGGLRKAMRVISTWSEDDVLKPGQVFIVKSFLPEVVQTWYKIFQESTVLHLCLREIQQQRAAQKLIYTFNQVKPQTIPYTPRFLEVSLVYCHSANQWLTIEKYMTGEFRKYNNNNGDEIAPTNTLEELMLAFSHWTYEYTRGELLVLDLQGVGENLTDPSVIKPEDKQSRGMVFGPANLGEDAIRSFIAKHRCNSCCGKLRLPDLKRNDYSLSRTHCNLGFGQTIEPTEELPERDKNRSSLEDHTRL

Compound: c1ccc2c(c1)CCC[C@H]2Nc1nc2ccccc2[nH]1 [NS8593]
whole-cell patch clamp; 10 μM inhibits currents (mTRPM6): We noted that NS8593 caused a rapid irreversible inhibition of mTRPM6

whole-cell currents at break-in (pre-activated outward currents) in HEK 293 cells co-transfected with mTRPM6 and mTRPM7, against cells with mTRPM7 alone [1]: 10 fold
Compound: mouse TRPM6 with a C-terminal yellow fluorescent protein tag (mTRPM6-YFP), Q8CIR4 1-2028

Compound: Nc1ncnc2c1ncn2[C@@H]1O[C@H](COP(=O)(O)OP(=O)(O)OP(=O)(O)O)[C@@H](O)[C@H]1O [Mg·ATP]
IC50 (mTRPM7): 2.93 mM
